Results: patent publication US6841684B2, “Imidiazoles having reduced side effects” (Allergan, Inc., priority 1997, dated 2005)
Structures can show the parent of a compound that is named as a salt.

Molecular target: T1, rat α2B (RNG gene) receptor (Rattus norvegicus, UniProt P19328)
T1 construct: expressed in transfected cells; host or cells: NIH-3T3 cells, calcium phosphate cotransfection
T1 sequence (P19328 1-453): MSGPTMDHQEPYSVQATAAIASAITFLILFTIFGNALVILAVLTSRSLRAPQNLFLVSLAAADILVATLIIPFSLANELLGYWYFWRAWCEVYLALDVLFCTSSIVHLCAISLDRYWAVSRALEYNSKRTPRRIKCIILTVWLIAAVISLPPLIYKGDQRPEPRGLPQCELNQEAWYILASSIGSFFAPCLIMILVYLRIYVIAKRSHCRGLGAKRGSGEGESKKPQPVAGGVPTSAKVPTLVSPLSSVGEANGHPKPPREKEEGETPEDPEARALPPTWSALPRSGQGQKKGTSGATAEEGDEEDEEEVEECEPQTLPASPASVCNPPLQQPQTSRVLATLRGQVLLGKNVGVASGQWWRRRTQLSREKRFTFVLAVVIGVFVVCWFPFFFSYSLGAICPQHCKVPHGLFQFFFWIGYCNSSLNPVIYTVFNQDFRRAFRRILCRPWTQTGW
Assay: RSAT (Receptor Selection and Amplification Technology) assay, alpha 2B
Format: cell-based
Conditions: ratio of maximal effect to that of standard full agonist oxymetazoline
Excerpt: This preferential activity can be determined in a variety of functional assays such as Cyclic AMP Production, Shimizu et al, J. Neurochem. […] In the study below, the RSAT assay on cells that have been transiently transfected with the human α2A (c10 gene), rat α2B (RNG gene) and human α2C (c4 gene) receptors was used.
The assay measures a receptor-mediated loss of contact inhibition that results in selective proliferation of receptor-containing cells in a mixed population of confluent cells. The increase in cell number is assessed with an appropriate transfected marker gene such as b-galactosidase, the activity of which can be easily measured in a 96-well format. Receptors that activate the G protein, Gq, elicit this response. Alpha2 receptors, which normally couple to Gi, activate the RSAT response when coexpressed with a hybrid Gq protein that has a Gi receptor recognition domain, called Gq/i5^2.
NIH-3T3 cells are plated at a density of 2×10^6 cells in 15 cm dishes and maintained in Dulbecco's modified Eagle's medium supplemented with 10% calf serum. One day later, cells are cotransfected by calcium phosphate precipitation with mammalian expression plasmids encoding p-SV-b-galactosidase (5-10 mg), receptor (1-2 mg) and G protein (1-2 mg). 40 mg salmon sperm DNA may also be included in the transfection mixture. Fresh media is added on the following day and 1-2 days later, cells are harvested and frozen in 50 assay aliquots. Cells are thawed and 100 ml added to […] aliquots of various concentrations of drugs in triplicate in 96-well dishes. Incubations continue 72-96 hr at 37°. After washing with phosphate-buffered saline, b-galactosidase enzyme activity is determined by adding 200 ml of the chromogenic substrate (consisting of 3.5 mM o-nitrophenyl-b-D-galactopyranoside and 0.5% nonidet P-40 in phosphate buffered saline), incubating overnight at 30° and measuring optical density at 420 nm. The absorbence is a measure of enzyme activity, which depends on cell number and reflects a receptor-mediated cell proliferation. The EC50 and maximal effect of each drug at each alpha2 receptor is determined. The efficacy or intrinsic activity is calculated as a ratio of the maximal effect of the drug to the maximal effect of a standard full agonist for each receptor subtype.

Structure (SMILES)	Intrinsic Activity Relative to Oxymetazoline, Alpha 2B
c1nc(Cc2cc3c(s2)CCCC3)c[nH]1 [Example K-1, 4(5)-(4,5,6,7-tetrahydrobenzo[b]thiophen-2-ylmethyl)-1H-imidazole]	0.53
COCC1=CCCC(Cc2c[nH]cn2)C1 (stereo not drawn) [Example 1E]	1
CC1=CC(Cc2c[nH]cn2)CC1 (stereo not drawn) [Example T-3, 4(5)-(3-methylcyclopent-2-enylmethyl)-1H-imidazole, but-2-enedioic acid salt]	1.08
O=C1c2ccccc2SCC1Cc1c[nH]cn1 (stereo not drawn) [Example B-5b, 3-(1H-imidazol-4(5)-ylmethyl)thiochroman-4-one]	0.5
c1cnc2c(c1)CC(Cc1c[nH]cn1)CC2 (stereo not drawn) [Example Q-4, 6-(1H-imidazol-4(5)-ylmethyl)-5,6,7,8-tetrahydro-quinoline, dihydrochloride]	0.8
CC1=C(Cc2c[nH]cn2)COc2ccccc21 [Example 1G]	0.6
CCC1=CCC(Cc2c[nH]cn2)CC1 (stereo not drawn) [Example X-2, 4(5)-(4-Ethyl-cyclohex-3-enylmethyl)-1H-imidazole, but-2-enedioic acid salt]	0.56
C#CC1=CC(Cc2c[nH]cn2)CCC1 (stereo not drawn) [Example 1O]	0.8
CC1C=CC(Cc2c[nH]cn2)CC1 (stereo not drawn) [Example U-2, 4(5)-(4-methyl-cyclohex-2-enylmethyl)-1H-imidazole, but-2-enedioic acid salt]	0.6
CC1=C(C)CC(Cc2c[nH]cn2)CC1 (stereo not drawn) [Example W-1, 4(5)-(3,4-Dimethyl-cyclohex-3-enylmethyl)-1H-imidazole, but-2-enedioic acid salt]	0.55
c1nc(Cc2ccoc2)c[nH]1 [Example C-6, 4(5)-furan-3-ylmethyl-1H-imidazole]	0.67
CC1CC(Cc2c[nH]cn2)C(=O)c2ccccc21 (stereo not drawn) [Example B-4b, 2-(1H-imidazol-4(5)-ylmethyl)-4-methyl-3,4-dihydro-2H-naphthalen-1-one]	0.7
CCC1=C(C)CCC(Cc2c[nH]cn2)C1 (stereo not drawn) [Example 1D]	0.6
CC1=CCC(Cc2c[nH]cn2)CC1 (stereo not drawn) [Example X-1, 4(5)-(4-Methyl-cyclohex-3-enylmethyl)-1H-imidazole, but-2-enedioic acid salt]	0.8
C1=C(Cc2c[nH]cn2)CSc2ccccc21 [Example 1F]	0.8
O=C1c2ccccc2CC1Cc1c[nH]cn1 (stereo not drawn) [Example B-7b, 2-(1H-imidazol-4(5)-ylmethyl)indan-1-one]	0.3
O=C1/C(=C/c2c[nH]cn2)COc2ccccc21 [Example B-2a, 3-(1H-imidazol-4(5)-ylmethylene)chroman-4-one]	0.63
CC1=CCCCC1Cc1c[nH]cn1 (stereo not drawn) [Example 1M]	0.6
c1ccc2c(c1)SCCC2Cc1cnc[nH]1 (stereo not drawn) [Example 1-B]	0.7
CC(c1c[nH]cn1)c1ccco1 (stereo not drawn) [L, 4(5)-(1-furan-2-ylethyl)-1H-imidazole]	0.9
CC(C)(C)c1ccc(Cc2c[nH]cn2)o1 [Example K-2, 4(5)-(5-tert-butylfuran-2-ylmethyl)-1H-imidazole]	0.7

Structure (SMILES)	Intrinsic Activity Relative to Oxymetazoline, Alpha 2B
O=C1/C(=C\c2c[nH]cn2)CCc2ncccc21 [Example Q-1, (Z)-6-(1H-imidazol-4(5)-ylmethylene)-7,8-dihydro-6H-quinolin-5-one]	0.75
C1=C(Cc2c[nH]cn2)COc2ccccc21 [Example 1J]	0.5
Cc1ccc2c(c1)CC(Cc1c[nH]cn1)CC2.Cl (stereo not drawn) [Example B-8b, 4(5)-(7-methyl-1,2,3,4-tetrahydronaphthalen-2-ylmethyl)-1H-imidazole, hydrogen chloride salt]	0.6
c1ccc2oc(Cc3c[nH]cn3)cc2c1 [Example C-10, 4(5)-benzofuran-2-ylmethyl-1H-imidazole]	0.48
O=C1/C(=C/c2c[nH]cn2)CSc2ccccc21 [Example B-5a, 3-(1H-imidazol-4(5)-ylmethylene)thiochroman-4-one]	0.5
c1ccc2c(c1)CCCC2Cc1c[nH]cn1 (stereo not drawn) [Example 1H]	0.6
c1ccc(-c2csc(Cc3c[nH]cn3)c2)cc1 [Example C-13, 4(5)-(4-phenylthiophen-2-ylmethyl)-1H-imidazole]	0.5
O=C1c2ccccc2CCC1Cc1c[nH]cn1 (stereo not drawn) [Example B-3a]	0.8
O=C1/C(=C/c2c[nH]cn2)Cc2ccccc21 [Example B-7a, 2-(1-H-imidazol-4(5)-ylmethylene)indan-1-one]	0.3
CCC1=CC(Cc2c[nH]cn2)CCC1 (stereo not drawn) [Example 1P]	0.7
O=C1C(Cc2c[nH]cn2)CCC2NCCCC12 (stereo not drawn) [Example Q-5, 6-(1H-imidazol-4(5)-yl-methyl)-octahydroquinolin-5-one]	1.0
C#CC1=CCC(Cc2c[nH]cn2)CC1 (stereo not drawn) [Example 1K]	0.6
c1cc2c(cn1)CC(Cc1c[nH]cn1)CC2 (stereo not drawn) [Example P-2, 7-(1H-imidazol-4(5)-ylmethyl)-5,6,7,8-tetrahydro-isoquinoline, fumarate]	0.4
Brc1csc(Cc2c[nH]cn2)c1 [Example C-12, 4(5)-(4-bromothiophen-2-ylmethyl)-1H-imidazole]	1.3
C1=CC(Cc2c[nH]cn2)CCC1 (stereo not drawn) [Example U-1, 4(5)-cyclohex-2-enylmethyl-1H-imidazole, but-2-enedioic acid salt]	0.6
O=C1c2ccncc2CCC1Cc1c[nH]cn1 (stereo not drawn) [Example R-2, 6-(1H-imidazol-4(5)-ylmethyl)-7,8-dihydro-6H-isoquinolin-5-one, dihydrochloride]	0.6
CCc1ccc(Cc2c[nH]cn2)o1 [Example C-11, 4(5)-(5-ethylfuran-2-ylmethyl)-1H-imidazole]	0.5
O=C1/C(=C/c2c[nH]cn2)CCc2nccnc21 [Example R-1, (E)-6-(1H-imidazol-4(5)-ylmethylene)-7,8-dihydro-6H-quinoxalin-5-one]	0.8
C=CC1=CCC(Cc2c[nH]cn2)CC1 (stereo not drawn) [Example 1-A]	0.7
c1ccc2c(c1)CC(Cc1c[nH]cn1)C2 [Example B-7c, 4(5)-indan-2-ylmethyl-1H-imidazole]	0.9
CC1CC(Cc2c[nH]cn2)Cc2ccccc21 (stereo not drawn) [Example B-4a, 4(5)-(4-methyl-1,2,3,4-tetrahydronaphthalen-2-ylmethyl)-1H-imidazole]	0.75
